Assay results taken from patent US10294234B2, “HIV inhibitor compounds” (priority 2017, dated 2019).
Like-named read-outs stand apart in the source and are kept apart here.

Key:
[1] = system: HIV-1 (IIIB) in MT-4 cells; experiment: MT-4 HIV assay; format: cell-based; details: Human immunodeficiency virus 1, MT4, 120 h
Method in brief: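 MT-4 cells infected with HIV-1 IIIB (1:250 stock dilution) were incubated with 1:3 serially diluted compounds in RPMI with 10% FBS for 5 days at 37 °C. Cell Titer Glo luminescence was the readout. Plates included mock-infected wells, no-drug wells and 5 uM AZT controls.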

[2] = Description: Liver Microsomal Stability Protocol
Test compounds and one control compound (verapamil) were tested in 3 different species in duplicate sets.
Test compound concentration: 1 uM; Protein concentration: 0.5 mg/mL (for dog, rat, and human liver microsomes); Cofactor: NADPH-Regenerating system (NRS) solution; Time-points: 2, 12, 25, 45, and 65 minutes.
Reaction composition (in each incubation well) contains:
After plates were vortexed, they were centrifuged for 30 minutes to remove proteins. About 100 μL supernatant was removed to a new plate and diluted with 150 μL water. About 20 μL of the mixture was injected into LC/MS/MS system to monitor the compound's response. In vitro measured t1/2 was used to calculate Clint values.

[3] = HIV-1 (IIIB), MT-4 cells, 5 days, Cell Titer Glo, read-out: EC50
[4] = human liver microsomes 0.5 mg/mL, 1 uM compound, NADPH
[5] = rat liver microsomes 0.5 mg/mL, 1 uM compound, NADPH

Dog. Pred. Cl. ([2]; dog liver microsomes 0.5 mg/mL, 1 uM compound, NADPH)	Human Pred Cl. [2, 4]	Rat. Pred. Cl. [2, 5]	SMILES	EC50 [1, 3]	Human Pred Cl. ([2]; human, microsomes)	Rat. Pred. Cl. ([2]; rat, microsomes)	EC50 [1]
			COC(=O)N[C@H](C(=O)N[C@@H](Cc1ccc(C#Cc2ccc(N3CC4CC(C3)N4C3COC3)nc2)cc1)[C@@H](O)CN(Cc1c(F)cc(-c2ccn(C3CC3)n2)cc1F)NC(=O)[C@@H](NC(=O)OC)C(C)(C)C(F)(F)F)C(C)(C)C(F)(F)F [Example 40, Methyl ((5S,8S,9S,14S)-11-(4-(1-cyclopropyl-1H-pyrazol-3-yl)-2,6-difluorobenzyl)-16,16,16-trifluoro-9-hydroxy-15,15-dimethyl-8-(4-((6-(6-(oxetan-3-yl)-3,6-diazabicyclo[3.1.1]heptan-3-yl)pyridin-3-yl)ethynyl)benzyl)-3,6,13-trioxo-5-(1,1,1-trifluoro-2-methylpropan-2-yl)-2-oxa-4,7,11,12-tetraazahexadecan-14-yl)carbamate]	3.89 nM	0.13 L/H/kg	0.5 L/H/kg	
1.66 L/H/kg	0.16 L/H/kg	1.01 L/H/kg	COC(=O)N[C@H](C(=O)N[C@@H](Cc1ccc(C#Cc2ccc(N3C[C@H]4C[C@@H]3CN4C3COC3)nc2)cc1)[C@@H](O)CN(Cc1c(F)cc(-c2ccn(CC(F)F)n2)cc1F)NC(=O)[C@@H](NC(=O)OC)C(C)(C)C(F)(F)F)C(C)(C)C(F)(F)F [Example 43, Methyl ((5S,8S,9S,14S)-11-(4-(1-(2,2-difluoroethyl)-1H-pyrazol-3-yl)-2,6-difluorobenzyl)-16,16,16-trifluoro-9-hydroxy-15,15-dimethyl-8-(4-((6-((1R,4R)-5-(oxetan-3-yl)-2,5-diazabicyclo[2.2.1]heptan-2-yl)pyridin-3-yl)ethynyl)benzyl)-3,6,13-trioxo-5-(1,1,1-trifluoro-2-methylpropan-2-yl)-2-oxa-4,7,11,12-tetraazahexadecan-14-yl)carbamate]				2.87 nM
			COC(=O)N[C@H](C(=O)N[C@@H](Cc1ccc(C#Cc2ccc(N3CC4COCC(C3)N4C)nc2)cc1)[C@@H](O)CN(Cc1c(F)cc(-c2ccn(C(F)F)n2)cc1F)NC(=O)[C@@H](NC(=O)OC)C(C)(C)C(F)(F)F)C(C)(C)C(F)(F)F [Example 44, Methyl ((5S,8S,9S,14S)-11-(4-(1-(difluoromethyl)-1H-pyrazol-3-yl)-2,6-difluorobenzyl)-16,16,16-trifluoro-9-hydroxy-15,15-dimethyl-8-(4-((6-(9-methyl-3-oxa-7,9-diazabicyclo[3.3.1]nonan-7-yl)pyridin-3-yl)ethynyl)benzyl)-3,6,13-trioxo-5-(1,1,1-trifluoro-2-methylpropan-2-yl)-2-oxa-4,7,11,12-tetraazahexadecan-14-yl)carbamate]	3.97 nM	0.13 L/H/kg	2.54 L/H/kg	
	<0.11 L/H/kg	0.92 L/H/kg	COC(=O)N[C@H](C(=O)N[C@@H](Cc1ccc(C#Cc2ccc(N3C[C@H]4C[C@@H]3CN4C3COC3)nc2)cc1)[C@@H](O)CN(Cc1c(F)cc(-c2ccn(C3CC3)n2)cc1F)NC(=O)[C@@H](NC(=O)OC)C(C)(C)C(F)(F)F)C(C)(C)C(F)(F)F [Example 45, Methyl ((5S,8S,9S,14S)-11-(4-(1-cyclopropyl-1H-pyrazol-3-yl)-2,6-difluorobenzyl)-16,16,16-trifluoro-9-hydroxy-15,15-dimethyl-8-(4-((6-((1R,4R)-5-(oxetan-3-yl)-2,5-diazabicyclo[2.2.1]heptan-2-yl)pyridin-3-yl)ethynyl)benzyl)-3,6,13-trioxo-5-(1,1,1-trifluoro-2-methylpropan-2-yl)-2-oxa-4,7,11,12-tetraazahexadecan-14-yl)carbamate]				2.56 nM
			COC(=O)N[C@H](C(=O)N[C@@H](Cc1ccc(C#Cc2ccc(N3CC4CCC(C3)[N+]4(C)C3COC3)nc2)cc1)[C@@H](O)CN(Cc1c(F)cc(-c2ccn(C(F)F)n2)cc1F)NC(=O)[C@@H](NC(=O)OC)C(C)(C)C(F)(F)F)C(C)(C)C(F)(F)F (stereo partly drawn) [Example 48, 3-(5-((4-((2S,3S)-4-(1-(4-(1-(difluoromethyl)-1H-pyrazol-3-yl)-2,6-difluorobenzyl)-2-((S)-4,4,4-trifluoro-2-((methoxycarbonyl)amino)-3,3-dimethylbutanoyl)hydrazinyl)-3-hydroxy-2-((S)-4,4,4-trifluoro-2-((methoxycarbonyl)amino)-3,3-dimethylbutanamido)butyl)phenyl)ethynyl)pyridin-2-yl)-8-methyl-8-(oxetan-3-yl)-3,8-diazabicyclo[3.2.1]octan-8-ium]	114 nM	<0.11 L/H/kg	0.18 L/H/kg	
			COC(=O)N[C@H](C(=O)N[C@@H](Cc1ccc(C#Cc2cnc(N3CC4CCC(C3)N4C3COC3)cn2)cc1)[C@@H](O)CN(Cc1c(F)cc(-c2ccn(C(F)F)n2)cc1F)NC(=O)[C@@H](NC(=O)OC)C(C)(C)C(F)(F)F)C(C)(C)C(F)(F)F [Example 50, Methyl ((5S,8S,9S,14S)-11-(4-(1-(difluoromethyl)-1H-pyrazol-3-yl)-2,6-difluorobenzyl)-16,16,16-trifluoro-9-hydroxy-15,15-dimethyl-8-(4-((5-(8-(oxetan-3-yl)-3,8-diazabicyclo[3.2.1]octan-3-yl)pyrazin-2-yl)ethynyl)benzyl)-3,6,13-trioxo-5-(1,1,1-trifluoro-2-methylpropan-2-yl)-2-oxa-4,7,11,12-tetraazahexadecan-14-yl)carbamate]	4.31 nM	<0.11 L/H/kg	<0.18 L/H/kg	
	0.14 L/H/kg	<0.18 L/H/kg	COC(=O)N[C@H](C(=O)N[C@@H](Cc1ccc(C#Cc2ccc(N3CC[N+]4([O-])CCOC[C@H]4C3)nc2)cc1)[C@@H](O)CN(Cc1c(F)cc(-c2ccn(C(F)F)n2)cc1F)NC(=O)[C@@H](NC(=O)OC)C(C)(C)C(F)(F)F)C(C)(C)C(F)(F)F (stereo partly drawn) [Example 52, (9aR)-8-(5-((4-((2S,3S)-4-(1-(4-(1-(difluoromethyl)-1H-pyrazol-3-yl)-2,6-difluorobenzyl)-2-((S)-4,4,4-trifluoro-2-((methoxycarbonyl)amino)-3,3-dimethylbutanoyl)hydrazinyl)-3-hydroxy-2-((S)-4,4,4-trifluoro-2-((methoxycarbonyl)amino)-3,3-dimethylbutanamido)butyl)phenyl)ethynyl)pyridin-2-yl)octahydro-5H-pyrazino[2,1-c][1,4]oxazine 5-oxide]	8.15 nM			
			COC(=O)N[C@H](C(=O)NN(Cc1c(F)cc(-c2ccccn2)cc1F)C[C@H](O)[C@H](Cc1ccc(C#Cc2ccc(N3CC4CCC(C3)N4C3COC3)nc2)cc1)NC(=O)[C@@H](NC(=O)OC)C(C)(C)C(F)(F)F)C(C)(C)C [Example 53, Methyl ((5S,8S,9S,14S)-11-(2,6-difluoro-4-(pyridin-2-yl)benzyl)-9-hydroxy-15,15-dimethyl-8-(4-((6-(8-(oxetan-3-yl)-3,8-diazabicyclo[3.2.1]octan-3-yl)pyridin-3-yl)ethynyl)benzyl)-3,6,13-trioxo-5-(1,1,1-trifluoro-2-methylpropan-2-yl)-2-oxa-4,7,11,12-tetraazahexadecan-14-yl)carbamate]	2.98 nM	0.51 L/H/kg	0.2 L/H/kg	
			COC(=O)N[C@H](C(=O)N[C@@H](Cc1ccc(C#Cc2ccc(N3C4CC3CN(C3COC3)C4)nc2)cc1)[C@@H](O)CN(Cc1c(F)cc(-c2cnn(C(F)F)c2)cc1F)NC(=O)[C@@H](NC(=O)OC)C(C)(C)C(F)(F)F)C(C)(C)C(F)(F)F [Example 59, Methyl ((5S,8S,9S,14S)-11-(4-(1-(difluoromethyl)-1H-pyrazol-4-yl)-2,6-difluorobenzyl)-16,16,16-trifluoro-9-hydroxy-15,15-dimethyl-8-(4-((6-(3-(oxetan-3-yl)-3,6-diazabicyclo[3.1.1]heptan-6-yl)pyridin-3-yl)ethynyl)benzyl)-3,6,13-trioxo-5-(1,1,1-trifluoro-2-methylpropan-2-yl)-2-oxa-4,7,11,12-tetraazahexadecan-14-yl)carbamate]	3.38 nM	0.6 L/H/kg	0.83 L/H/kg	
			COC(=O)N[C@H](C(=O)N[C@@H](Cc1ccc(C#Cc2ccc(N3CC4CC(C3)N4C3COC3)nc2)cc1)[C@@H](O)CN(Cc1c(F)cc(-c2cnn(C(F)F)c2)cc1F)NC(=O)[C@@H](NC(=O)OC)C(C)(C)C(F)(F)F)C(C)(C)C(F)(F)F [Example 60, Methyl ((5S,8S,9S,14S)-11-(4-(1-(difluoromethyl)-1H-pyrazol-4-yl)-2,6-difluorobenzyl)-16,16,16-trifluoro-9-hydroxy-15,15-dimethyl-8-(4-((6-(6-(oxetan-3-yl)-3,6-diazabicyclo[3.1.1]heptan-3-yl)pyridin-3-yl)ethynyl)benzyl)-3,6,13-trioxo-5-(1,1,1-trifluoro-2-methylpropan-2-yl)-2-oxa-4,7,11,12-tetraazahexadecan-14-yl)carbamate]	3.42 nM	0.12 L/H/kg	0.65 L/H/kg	
